In ChEMBL document CHEMBL6153124, “Structural Chemistry of Helicase Inhibition” (J Med Chem, 2025):

What was measured:
[1] = Inhibition of Coxsackievirus B3 2C protein
[2] = biological target: SWI/SNF-related matrix-associated actin-dependent regulator of chromatin subfamily A member 2 (Homo sapiens, UniProt P51531); assay: Inhibition of SMARCA2 (unknown origin)
[3] = Inhibition of HSV-1 helicase DNA dependent ATPase activity assessed as reduction in helicase-primase complex; design: species or system Human alphaherpesvirus 1
[4] = biological target: T1, Bifunctional 3'-5' exonuclease/ATP-dependent helicase WRN (Homo sapiens, UniProt Q14191); assay: Inhibition of N-terminal WRN (unknown origin)
T1 sequence (Q14191 whole entry, the tested form may be a part): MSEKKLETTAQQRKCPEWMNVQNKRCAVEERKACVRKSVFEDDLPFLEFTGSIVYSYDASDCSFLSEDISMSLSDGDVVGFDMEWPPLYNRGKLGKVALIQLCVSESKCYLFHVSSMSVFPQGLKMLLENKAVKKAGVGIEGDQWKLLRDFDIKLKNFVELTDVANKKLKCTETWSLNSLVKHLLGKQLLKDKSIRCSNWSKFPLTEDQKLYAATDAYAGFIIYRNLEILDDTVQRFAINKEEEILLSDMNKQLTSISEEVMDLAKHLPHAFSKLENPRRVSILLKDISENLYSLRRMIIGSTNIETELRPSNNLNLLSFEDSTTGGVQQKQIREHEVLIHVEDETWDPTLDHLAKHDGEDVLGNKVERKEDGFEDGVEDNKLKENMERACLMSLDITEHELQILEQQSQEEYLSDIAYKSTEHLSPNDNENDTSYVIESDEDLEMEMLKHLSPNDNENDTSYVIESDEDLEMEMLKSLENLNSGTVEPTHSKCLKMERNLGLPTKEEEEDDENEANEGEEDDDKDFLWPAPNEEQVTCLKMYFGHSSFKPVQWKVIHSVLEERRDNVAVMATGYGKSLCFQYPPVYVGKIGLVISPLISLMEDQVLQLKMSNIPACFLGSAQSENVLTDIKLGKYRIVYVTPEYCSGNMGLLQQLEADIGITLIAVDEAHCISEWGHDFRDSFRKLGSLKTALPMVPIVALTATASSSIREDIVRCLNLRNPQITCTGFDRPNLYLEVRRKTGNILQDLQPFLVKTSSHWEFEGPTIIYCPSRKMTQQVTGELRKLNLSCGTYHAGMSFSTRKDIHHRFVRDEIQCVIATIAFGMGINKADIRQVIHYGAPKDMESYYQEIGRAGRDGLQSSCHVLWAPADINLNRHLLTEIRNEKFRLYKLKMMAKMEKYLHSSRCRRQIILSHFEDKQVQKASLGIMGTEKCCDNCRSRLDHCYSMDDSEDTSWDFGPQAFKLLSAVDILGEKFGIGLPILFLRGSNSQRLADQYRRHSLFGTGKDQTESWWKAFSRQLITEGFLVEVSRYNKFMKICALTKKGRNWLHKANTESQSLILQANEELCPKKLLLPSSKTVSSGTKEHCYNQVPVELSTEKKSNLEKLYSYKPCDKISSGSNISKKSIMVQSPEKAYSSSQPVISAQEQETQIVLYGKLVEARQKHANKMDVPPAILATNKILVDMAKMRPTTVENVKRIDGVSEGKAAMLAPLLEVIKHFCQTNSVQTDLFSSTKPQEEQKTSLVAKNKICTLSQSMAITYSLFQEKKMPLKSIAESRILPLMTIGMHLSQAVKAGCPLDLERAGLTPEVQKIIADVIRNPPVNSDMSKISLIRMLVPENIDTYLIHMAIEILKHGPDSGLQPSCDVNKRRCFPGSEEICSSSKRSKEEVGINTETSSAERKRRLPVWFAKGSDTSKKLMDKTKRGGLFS

[5] = biological target: T1, Bifunctional 3'-5' exonuclease/ATP-dependent helicase WRN; assay: Inhibition of N-terminal Hexa-histidine-tagged human recombinant WRN helicase domain (517 to 945 residues) extracted from Baculovirus infected Sf9 cells by fluorescence based analysis
[6] = biological target: Eukaryotic initiation factor 4A-I (Homo sapiens, UniProt P60842); assay: Inhibition of recombinant full length 6xHis-tagged EIF4A1 (unknown origin) by FP assay
Chain of Eukaryotic initiation factor 4A-I (P60842 whole entry): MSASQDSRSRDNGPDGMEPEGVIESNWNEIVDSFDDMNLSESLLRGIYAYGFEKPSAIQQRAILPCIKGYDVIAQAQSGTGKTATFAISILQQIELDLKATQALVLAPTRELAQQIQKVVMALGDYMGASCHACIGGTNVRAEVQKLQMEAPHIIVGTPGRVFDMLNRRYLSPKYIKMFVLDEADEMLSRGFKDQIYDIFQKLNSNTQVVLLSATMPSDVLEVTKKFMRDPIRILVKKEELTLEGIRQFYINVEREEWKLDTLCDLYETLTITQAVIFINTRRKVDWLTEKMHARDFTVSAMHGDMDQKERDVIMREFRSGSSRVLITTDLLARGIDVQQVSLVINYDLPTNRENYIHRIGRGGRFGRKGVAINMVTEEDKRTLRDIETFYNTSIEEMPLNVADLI

[7] = Binding affinity to Coxsackievirus B3 2C protein assessed as dissociation constant

Chain of SWI/SNF-related matrix-associated actin-dependent regulator of chromatin subfamily A member 2 (P51531 whole entry): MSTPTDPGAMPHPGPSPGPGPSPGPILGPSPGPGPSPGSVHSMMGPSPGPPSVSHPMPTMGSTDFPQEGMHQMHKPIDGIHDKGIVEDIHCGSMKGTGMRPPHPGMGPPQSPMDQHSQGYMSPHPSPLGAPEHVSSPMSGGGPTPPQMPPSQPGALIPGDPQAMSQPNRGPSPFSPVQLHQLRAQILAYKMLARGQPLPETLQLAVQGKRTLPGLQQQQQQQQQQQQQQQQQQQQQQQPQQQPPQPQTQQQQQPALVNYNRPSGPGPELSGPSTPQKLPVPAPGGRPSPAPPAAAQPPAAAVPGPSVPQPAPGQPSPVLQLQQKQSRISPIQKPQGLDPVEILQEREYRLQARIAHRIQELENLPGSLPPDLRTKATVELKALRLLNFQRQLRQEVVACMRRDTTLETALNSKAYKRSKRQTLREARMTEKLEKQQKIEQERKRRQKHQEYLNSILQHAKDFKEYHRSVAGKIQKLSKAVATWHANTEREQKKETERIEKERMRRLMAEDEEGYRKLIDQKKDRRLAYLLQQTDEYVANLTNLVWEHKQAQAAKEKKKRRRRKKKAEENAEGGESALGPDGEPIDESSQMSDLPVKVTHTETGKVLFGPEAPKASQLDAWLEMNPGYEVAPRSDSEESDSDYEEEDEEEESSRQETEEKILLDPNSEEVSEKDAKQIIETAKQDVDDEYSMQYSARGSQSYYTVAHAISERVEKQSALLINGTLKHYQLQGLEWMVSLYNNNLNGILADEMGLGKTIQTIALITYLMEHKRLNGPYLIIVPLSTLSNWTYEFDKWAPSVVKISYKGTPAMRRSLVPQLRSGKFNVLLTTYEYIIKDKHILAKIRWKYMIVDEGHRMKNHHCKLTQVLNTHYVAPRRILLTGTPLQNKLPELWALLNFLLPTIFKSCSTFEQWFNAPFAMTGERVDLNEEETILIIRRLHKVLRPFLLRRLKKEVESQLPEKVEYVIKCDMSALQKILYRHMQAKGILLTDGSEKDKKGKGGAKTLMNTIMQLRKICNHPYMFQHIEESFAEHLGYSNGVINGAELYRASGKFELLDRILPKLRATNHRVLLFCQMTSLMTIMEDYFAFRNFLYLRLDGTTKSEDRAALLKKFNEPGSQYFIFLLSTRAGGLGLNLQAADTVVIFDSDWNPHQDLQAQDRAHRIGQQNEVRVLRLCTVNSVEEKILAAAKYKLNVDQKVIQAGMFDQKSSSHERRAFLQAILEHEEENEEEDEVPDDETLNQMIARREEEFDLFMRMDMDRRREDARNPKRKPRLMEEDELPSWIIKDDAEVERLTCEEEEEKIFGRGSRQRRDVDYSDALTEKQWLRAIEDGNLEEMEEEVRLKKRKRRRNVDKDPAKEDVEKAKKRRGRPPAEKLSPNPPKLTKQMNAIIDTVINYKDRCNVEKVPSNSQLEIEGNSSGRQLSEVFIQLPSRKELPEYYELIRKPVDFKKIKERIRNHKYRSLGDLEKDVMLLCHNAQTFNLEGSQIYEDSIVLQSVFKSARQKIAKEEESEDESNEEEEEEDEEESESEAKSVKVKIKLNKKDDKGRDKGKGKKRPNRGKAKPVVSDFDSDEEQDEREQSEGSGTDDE

CNCC[C@H](Oc1ccc(C(F)(F)F)cc1)c1ccccc1 gave an EC50 [1] of 5000 nM.

In the case of O=C(Nc1cc(C(F)F)ns1)Nc1cc(F)ncc1CO, the IC50 [2] is reported as < 5 nM.

Cc1cccc(C)c1N(CC(=O)Nc1ccc(-c2ncon2)cc1)C(=O)C1CCS(=O)(=O)CC1 gave an IC50 [3] of 78 nM.

Compound CS(=O)(=O)CC[C@@H](NC(=O)c1cnc(C(F)(F)F)nc1Oc1ccccc1)C1CC1 has an IC50 [4] of 140 nM and an IC50 [5] of 140 nM.

Work on CC(/C=C/C(C)=C/[C@@H]1Cc2nc(cs2)CC[C@@H](N)CC(=O)O[C@@H](C)C/C(C)=C/C=C\C(=O)O1)=C\CN(C)C yielded an IC50 [6] of 1 nM.

Compound CNCCC(Oc1ccc(C(F)(F)F)cc1)c1ccccc1 (centres undefined) [FLUOXETINE] has an EC50 [1] of ~5000 nM and a Kd [7] of 9500 nM.

Compound COC(=O)[C@H]1[C@@H](O)[C@@]2(O)c3c(OC)cc(O[C@@H]4O[C@@H]([C@H](O)CO)CO[C@H]4OC)cc3O[C@@]2(c2ccc(OC)cc2)[C@@H]1c1ccccc1 [SILVESTROL] has an IC50 [6] of 60 nM.
